Data taken from PubChem BioAssay AID1963841 (Molecular Pharmacology Branch, DTP, NCI, 2024).

Tested on: 439559-082-T-J2-PDC spheroid viability
Assay: Anticancer human tumor 439559-082-T-J2-PDC patient-derived colon adenocarcinoma cell line growth inhibition [POLQ]
Details: spheroids with HUVEC and MSC; for IC50: curve of first compound; for viability, T/C: stronger effect = lower value
Method in brief: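 Growth inhibition in 3D: complex spheroids (tumor PDC, HUVEC, MSC) treated with POLQ inhibitor combinations; where Cmax unknown, highest tested concentration 10 microM, except SN-38 at 1 microM.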

[1] = second compound 0.0316 µM, first compound 0.0316 µM
[2] = second compound 0.0316 µM, first compound 0.1 µM
[3] = second compound 0.0316 µM, first compound 0.316 µM
[4] = second compound 0.0316 µM, first compound 1 µM
[5] = second compound 0.1 µM, first compound 0.0316 µM
[6] = second compound 0.1 µM, first compound 0.1 µM
[7] = second compound 0.1 µM, first compound 0.316 µM
[8] = second compound 0.1 µM, first compound 1 µM
[9] = second compound 0.316 µM, first compound 0.0316 µM
[10] = second compound 0.316 µM, first compound 0.1 µM
[11] = second compound 0.316 µM, first compound 0.316 µM
[12] = second compound 0.316 µM, first compound 1 µM
[13] = second compound 1 µM, first compound 0.0316 µM
[14] = second compound 1 µM, first compound 0.1 µM
[15] = second compound 1 µM, first compound 0.316 µM
[16] = second compound 1 µM, first compound 1 µM
[17] = second compound 3.16 µM, first compound 0.0316 µM
[18] = second compound 3.16 µM, first compound 0.1 µM
[19] = second compound 3.16 µM, first compound 0.316 µM
[20] = second compound 3.16 µM, first compound 1 µM
[21] = second compound 10 µM, first compound 0.0316 µM
[22] = second compound 10 µM, first compound 0.1 µM
[23] = second compound 10 µM, first compound 0.316 µM
[24] = second compound 10 µM, first compound 1 µM
[25] = second compound 0.0316 µM, first compound 3.16 µM
[26] = second compound 0.0316 µM, first compound 10 µM
[27] = second compound 0.1 µM, first compound 3.16 µM
[28] = second compound 0.1 µM, first compound 10 µM
[29] = second compound 0.316 µM, first compound 3.16 µM
[30] = second compound 0.316 µM, first compound 10 µM
[31] = second compound 1 µM, first compound 3.16 µM
[32] = second compound 1 µM, first compound 10 µM
[33] = second compound 3.16 µM, first compound 3.16 µM
[34] = second compound 3.16 µM, first compound 10 µM
[35] = second compound 10 µM, first compound 3.16 µM
[36] = second compound 10 µM, first compound 10 µM
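Also: spheroids exposed to compounds for seven days before readout.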
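For viability, T/C in this document: 100% = DMSO vehicle control viability.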

## C=CCn1c(=O)c2cnc(Nc3ccc(N4CCN(C)CC4)cc3)nc2n1-c1cccc(C(C)(C)O)n1 + COC1C(OC(N)=O)C(O)C(Oc2ccc3c(O)c(NC(=O)c4ccc(O)c(CC=C(C)C)c4)c(=O)oc3c2C)OC1(C)C
Second compound 0.0316 µM
  IC50: > 1 µM
Second compound 0.1 µM
  IC50: > 1 µM
Second compound 0.316 µM
  IC50: > 1 µM
Second compound 1 µM
  IC50: > 1 µM
Second compound 3.16 µM
  IC50: > 1 µM
Second compound 10 µM
  IC50: > 1 µM
Second compound 0.0316 µM, first compound 0.00316 µM
  viability, T/C: 98.7%
Second compound 0.0316 µM, first compound 0.01 µM
  viability, T/C: 104%
[1]
  viability, T/C: 102%
[2]
  viability, T/C: 101%
[3]
  viability, T/C: 96.1%
[4]
  viability, T/C: 80.7%
Second compound 0.1 µM, first compound 0.00316 µM
  viability, T/C: 112%
Second compound 0.1 µM, first compound 0.01 µM
  viability, T/C: 106%
[5]
  viability, T/C: 102%
[6]
  viability, T/C: 102%
[7]
  viability, T/C: 91%
[8]
  viability, T/C: 79.1%
Second compound 0.316 µM, first compound 0.00316 µM
  viability, T/C: 102%
Second compound 0.316 µM, first compound 0.01 µM
  viability, T/C: 102%
[9]
  viability, T/C: 105%
[10]
  viability, T/C: 101%
[11]
  viability, T/C: 94.5%
[12]
  viability, T/C: 86.3%
Second compound 1 µM, first compound 0.00316 µM
  viability, T/C: 106%
Second compound 1 µM, first compound 0.01 µM
  viability, T/C: 104%
[13]
  viability, T/C: 100%
[14]
  viability, T/C: 97.3%
[15]
  viability, T/C: 94.8%
[16]
  viability, T/C: 76.3%
Second compound 3.16 µM, first compound 0.00316 µM
  viability, T/C: 101%
Second compound 3.16 µM, first compound 0.01 µM
  viability, T/C: 101%
[17]
  viability, T/C: 97.2%
[18]
  viability, T/C: 94.6%
[19]
  viability, T/C: 102%
[20]
  viability, T/C: 85.6%
Second compound 10 µM, first compound 0.00316 µM
  viability, T/C: 100%
Second compound 10 µM, first compound 0.01 µM
  viability, T/C: 93.8%
[21]
  viability, T/C: 97.9%
[22]
  viability, T/C: 109%
[23]
  viability, T/C: 94.8%
[24]
  viability, T/C: 72.2%

## CC1COCCN1c1cc(C2(S(C)(=N)=O)CC2)nc(-c2ccnc3[nH]ccc23)n1 (stereo unspecified) + Cc1cccc(N(C)C(=O)C2C(O)CCN2c2nc(C)cc(C(F)(F)F)c2C#N)c1
Second compound 0.0316 µM
  IC50: > 10 µM
Second compound 0.1 µM
  IC50: > 10 µM
Second compound 0.316 µM
  IC50: > 10 µM
Second compound 1 µM
  IC50: > 10 µM
Second compound 3.16 µM
  IC50: > 10 µM
Second compound 10 µM
  IC50: > 10 µM
[1]
  viability, T/C: 105%
[2]
  viability, T/C: 102%
[3]
  viability, T/C: 104%
[4]
  viability, T/C: 92.4%
[25]
  viability, T/C: 83.4%
[26]
  viability, T/C: 70.5%
[5]
  viability, T/C: 98.6%
[6]
  viability, T/C: 101%
[7]
  viability, T/C: 97.9%
[8]
  viability, T/C: 101%
[27]
  viability, T/C: 84.7%
[28]
  viability, T/C: 70.4%
[9]
  viability, T/C: 97.3%
[10]
  viability, T/C: 97.8%
[11]
  viability, T/C: 103%
[12]
  viability, T/C: 94.5%
[29]
  viability, T/C: 94.2%
[30]
  viability, T/C: 75%
[13]
  viability, T/C: 102%
[14]
  viability, T/C: 98.2%
[15]
  viability, T/C: 101%
[16]
  viability, T/C: 92.1%
[31]
  viability, T/C: 89.1%
[32]
  viability, T/C: 69.2%
[17]
  viability, T/C: 101%
[18]
  viability, T/C: 103%
[19]
  viability, T/C: 99.9%
[20]
  viability, T/C: 96.6%
[33]
  viability, T/C: 92.2%
[34]
  viability, T/C: 68.3%
[21]
  viability, T/C: 95%
[22]
  viability, T/C: 89.6%
[23]
  viability, T/C: 96%
[24]
  viability, T/C: 96.6%
[35]
  viability, T/C: 80.5%
[36]
  viability, T/C: 59.1%

## CC1COCCN1c1cc(C2(S(C)(=N)=O)CC2)nc(-c2ccnc3[nH]ccc23)n1 (stereo unspecified) + Nc1ccc(C#CCN(C(=O)Cc2ncc(C(F)(F)F)cc2C(F)(F)F)c2ccc(F)cc2)nn1
Second compound 0.0316 µM
  IC50: > 10 µM
Second compound 0.1 µM
  IC50: > 10 µM
Second compound 0.316 µM
  IC50: > 10 µM
Second compound 1 µM
  IC50: > 10 µM
Second compound 3.16 µM
  IC50: > 10 µM
Second compound 10 µM
  IC50: > 10 µM
[1]
  viability, T/C: 98.7%
[2]
  viability, T/C: 98.4%
[3]
  viability, T/C: 88.9%
[4]
  viability, T/C: 95.8%
[25]
  viability, T/C: 89%
[26]
  viability, T/C: 74.7%
[5]
  viability, T/C: 99.4%
[6]
  viability, T/C: 91%
[7]
  viability, T/C: 96.7%
[8]
  viability, T/C: 79.6%
[27]
  viability, T/C: 84.1%
[28]
  viability, T/C: 71.5%
[9]
  viability, T/C: 94.5%
[10]
  viability, T/C: 115%
[11]
  viability, T/C: 96.3%
[12]
  viability, T/C: 90.8%
[29]
  viability, T/C: 77%
[30]
  viability, T/C: 70.5%
[13]
  viability, T/C: 98.3%
[14]
  viability, T/C: 105%
[15]
  viability, T/C: 98%
[16]
  viability, T/C: 96.4%
[31]
  viability, T/C: 74.8%
[32]
  viability, T/C: 65.3%
[17]
  viability, T/C: 94.1%
[18]
  viability, T/C: 98.9%
[19]
  viability, T/C: 95.3%
[20]
  viability, T/C: 76%
[33]
  viability, T/C: 83.7%
[34]
  viability, T/C: 67.5%
[21]
  viability, T/C: 99.3%
[22]
  viability, T/C: 101%
[23]
  viability, T/C: 86.8%
[24]
  viability, T/C: 94.7%
[35]
  viability, T/C: 84.9%
[36]
  viability, T/C: 72%
